Data reported in patent US20250170099A1, “TREATMENT OF POSTNATAL DEPRESSION” (GH RESEARCH IRELAND LIMITED, priority 2022, published 2025).

Tested on: Salmonella typhimurium TA98, TA100, TA1535, TA1537 and Escherichia coli WP2 uvrA pKM101
Experiment: Bacterial mutation test
Type: cell-based
Description: These conditions included treatments at concentrations up to 5000 μg/plate (the maximum recommended concentration according to current regulatory guidelines), in the absence and in the presence of a rat liver metabolic activation system (S-9).

Which results are given for `COc1ccc2[nH]cc(CCN(C)C)c2c1` [5-MeO-DMT]?
in vitro genotoxicity assessment: negative; mutation induction (up to 5000 μg/plate, without and with S-9): did not induce mutation
